Experimental findings from patent publication US20090325923A1, “NEW METHOD FOR THE TREATMENT OF INFLAMMATORY DISEASES” (TOPOTARGET SWITZERLAND SA, priority 2006, published 2009) are described below.

Test [1] relates to RAW264.7 cell line. The experiment in a line: LPS-stimulated TNF secretion by ELISA in RAW264.7 cells. It is filed as cell-based, mouse. To be noted: RAW264.7 cultured overnight with FK866 plus the added substance, LPS 2 h. As to the method:
The murine RAW264.7 cell line was stimulated with LPS in the presence of FK866. TNF protein concentrations were determined by ELISA (above panel) while mRNA levels were determined by RT-PCR (below panel).
(§1) (A) The mouse macrophage cell line RAW264.7 was cultured overnight with increasing doses of FK866, and then stimulated with LPS for 2 h. The culture supernatants were tested for TNF content by ELISA and intracellular NAD levels were measured by an enzymatic assay.
(§2) (B) RAW264.7 cells were cultured overnight in the presence of FK866 and the intracellular pool of NAD was restored by co-incubation of the cells with nicotinic acid (NA). Cells were then stimulated with LPS for 2 h and the culture supernatant was tested for TNF content by ELISA.
(§3) (C) RAW264.7 cells were cultured overnight in the presence of FK866 and NAD levels were maintained by culturing the cells in the presence of extracellular NAD. Cells were then stimulated with LPS for 2 h and the culture supernatant was tested for TNF content by ELISA.
This example illustrates that FK866 inhibits TNFα secretion at a posttranscriptional level. The murine RAW 264.7 cell line was incubated in the presence of graded doses of FK866, stimulated with microbial products, and levels of TNFα released in the supernatant evaluated by ELISA.
(§4) This example illustrates the correlation between proinflammatory cytokine secretion and NAD levels in the cell. The mouse macrophage cell line RAW264.7 was cultured overnight with increasing doses of FK866, and then stimulated with LPS for 2 h. The culture supernatants were tested for TNF content by ELISA and intracellular NAD levels were measured by an enzymatic assay.
(§5) In another experiment, RAW264.7 cells were cultured overnight in the presence of FK866 and the intracellular pool of NAD was restored by co-incubation of the cells with nicotinic acid. Nicotinic acid is a precursor of NAD, but its transformation into NAD is not dependent upon NMPRT and is thus not inhibited by FK866. Cells were then stimulated with LPS for 2 h and the culture supernatant was tested for TNF content by ELISA.
(§6) In another experiment, RAW264.7 cells were cultured overnight in the presence of FK866 and NAD levels were maintained by culturing the cells in the presence: of extra-cellular NAD. Cells were then stimulated with LPS for 2 h and the culture supernatant was tested for TNF content by ELISA.
Background: An ELISA detects its analyte on a solid surface through an enzyme-linked reagent.

Test [2] has as its system RAW264.7 cell line. The experiment in a line: Intracellular NAD by enzymatic assay in RAW264.7 cells. It counts as cell-based, mouse. To be noted: RAW264.7 cultured overnight with FK866 plus the added substance, LPS 2 h. Here is the method: as §1, §2, §3, §4, §5, §6
For test [3], the system named is Human monocytic cell line THP-1. The experiment in a line: LPS-stimulated cytokine secretion by ELISA in THP-1 cells. It counts as cell-based. Here is the method:
Human monocytic cell line THP-1 was cultured overnight in the presence of graded doses of nicotinic acid (NA), a precursor of NAD, and then stimulated with lipopolysaccharide (LPS) from gram-negative bacteria for 2 h. The cell supernatant was tested for tumor necrosis factor (TNF) content by ELISA and the intracellular pool of NAD was measured by an enzymatic assay.
Human monocytic cell line THP-1, human peripheral blood mononuclear cells (PBMC), human monocyte-derived dendritic cells, or mouse peritoneal macrophages were isolated and cultured overnight with increasing doses of FK866, and then stimulated with LPS for 6 h. The culture supernatants were tested for TNF and IL-6 content by ELISA
THP-1 cells were incubated in the presence of 10 nM FK866 and graded doses of NMN. Cells were further stimulated with LPS and intracellular NAD levels and TNFα secretion were determined using standard assays.
This example illustrates the direct relationship between NAD levels in cells and pro-inflammatory cytokine secretion. Human monocytic cell line THP-1 was cultured overnight in the presence of nicotinic acid, a precursor of NAD, and then stimulated with lipopolysaccharide (LPS) from gram-negative bacteria for 2 h. The cell supernatant was tested for tumor necrosis factor (TNF) content by ELISA and the intracellular pool of NAD was measured by an enzymatic assay.
This example describes the inhibition of pro-inflammatory cytokines production by the competitive small molecular weight compound inhibitor of NMPRT, ((E)-N-[4-(1-benzoylpiperidin-4-yl)butyl]-3-(pyridin-3-yl)acrylamide, designated FK866). Human monocytic cell line THP-1, human peripheral blood mononuclear cells (PBMC), human monocyte-derived dendritic cells, or mouse peritoneal macrophages were isolated and cultured overnight with increasing doses of FK866, and then stimulated with LPS for 6 h. The culture supernatants were tested for TNF and IL-6 content by ELISA.
This example illustrates that NAMPT is the only molecular target of FK866. […]

Test [4] has the same test system. The test can be described thus: Intracellular NAD by enzymatic assay in THP-1 cells. It counts as cell-based.
Description: The human THP-1 monocytic cell line was cultured in the presence of medium or FK866 and stimulated by LPS.
The subject of test [5] is collagen-induced arthritis. The test can be described thus: Collagen-induced arthritis (CIA) mouse model. It is filed as in vivo. To be noted: FK866 10 mg/kg ip twice daily or etanercept 15 mg/kg every three days, over 15 days.
Setting [6] is: THP-1, 10 nM FK866 and graded doses of NMN, LPS.

`NC(=O)c1ccc[n+]([C@@H]2O[C@H](COP(=O)([O-])OP(=O)(O)OC[C@H]3O[C@@H](n4cnc5c(N)ncnc54)[C@H](O)[C@@H]3O)[C@@H](O)[C@H]2O)c1` [NAD, nicotinamide adenyl dinucleotide]: the “TNF synthesis in the presence of FK866” value in the test on RAW264.7 cell line [1] is “restored”. For the same compound, the “NAD levels in the presence of FK866” value in the test with RAW264.7 cell line [2] is reported as “remained high”.
For `NC(=O)c1ccc[n+]([C@@H]2O[C@H](COP(=O)([O-])O)[C@@H](O)[C@H]2O)c1` [nicotinamide mononucleotide (NMN), nicotinamide mononucleotide], the “TNFα production despite exposure to FK866” value in test [3] (setting [6]) is on record as “restored”. Further, in test [4] (setting [6]), the “intracellular NAD levels despite exposure to FK866” value is given as “restored”.
For `O=C(O)c1cccnc1` [nicotinic acid], the TNF secretion result in test [3] (THP-1 cultured overnight with graded doses of nicotinic acid, LPS 2 h, ELISA) is on record as “increased in parallel in a dose-dependent fashion”. Also, the “intracellular NAD levels” value in test [4] (THP-1 cultured overnight with graded doses of nicotinic acid, LPS 2 h) is “increased in parallel in a dose-dependent fashion”. Moreover, the “TNF synthesis in the presence of FK866” value with RAW264.7 cell line [1] is given as “restored”. In addition, in the test with RAW264.7 cell line [2], the “NAD levels in the presence of FK866” value was “maintained high levels of NAD”.
On to etanercept, for which the “severity of arthritis in CIA mice” value in test [5] is “P<0.05 FK866 or etanercept versus placebo”.
